Source: the NIST ThermoML archive (doi:10.1021/je060271a)
Where “and” joins values, the source holds several entries; their conditions need not be identical. Equal values may be shown once. Numbers after ± are expanded uncertainties.

Details: 283.15 K, Liquid, Vibrating tube method

CCCCCCCC(=O)OCC(COC(=O)CCCCCCC)(COC(=O)CCCCCCC)COC(=O)CCCCCCC [pentaerythritol tetraoctanoate]
Details	mass density
4499.9 kPa	972.9 ± 1.2 kg/m3
4501.9 kPa	972.9 ± 1.2 kg/m3
4502.4 kPa	972.9 ± 1.2 kg/m3
4503 kPa	972.9 ± 1.2 kg/m3 and 972.8 ± 1.2 kg/m3
4503.5 kPa	972.8 ± 1.2 kg/m3 and 972.9 ± 1.2 kg/m3
4505.4 kPa	972.9 ± 1.2 kg/m3
4508 kPa	973 ± 1.2 kg/m3
4510.6 kPa	972.9 ± 1.2 kg/m3
4512.1 kPa	972.8 ± 1.2 kg/m3
4513.2 kPa	972.9 ± 1.2 kg/m3
4519.1 kPa	972.9 ± 1.2 kg/m3
4544.7 kPa	972.8 ± 1.2 kg/m3
4566.3 kPa	972.8 ± 1.2 kg/m3
4589 kPa	972.9 ± 1.2 kg/m3
4613.1 kPa	972.9 ± 1.2 kg/m3
4644 kPa	972.9 ± 1.2 kg/m3
4671.2 kPa	973 ± 1.2 kg/m3
4696.3 kPa	973 ± 1.2 kg/m3
4730.1 kPa	973 ± 1.2 kg/m3
4758.6 kPa	973 ± 1.2 kg/m3
4787.7 kPa	973.1 ± 1.2 kg/m3
4817.5 kPa	973.1 ± 1.2 kg/m3
4847.6 kPa	972.9 ± 1.2 kg/m3
4883.9 kPa	973 ± 1.2 kg/m3
4914.4 kPa	973.1 ± 1.2 kg/m3
4945.7 kPa	973.1 ± 1.2 kg/m3
4982.7 kPa	973.1 ± 1.2 kg/m3
5014 kPa	973.2 ± 1.2 kg/m3
5046.2 kPa	973.1 ± 1.2 kg/m3
5085.5 kPa	973.2 ± 1.2 kg/m3
5118.2 kPa	973.2 ± 1.2 kg/m3
5152.1 kPa	973.1 ± 1.2 kg/m3
5187.4 kPa	973.3 ± 1.2 kg/m3
5230.5 kPa	973.3 ± 1.2 kg/m3
5268 kPa	973.4 ± 1.2 kg/m3
5301.1 kPa	973.3 ± 1.2 kg/m3
5328.4 kPa	973.3 ± 1.2 kg/m3
5360.9 kPa	973.4 ± 1.2 kg/m3
5388.3 kPa	973.3 ± 1.2 kg/m3
5416.4 kPa	973.3 ± 1.2 kg/m3
5445 kPa	973.4 ± 1.2 kg/m3
5479.2 kPa	973.5 ± 1.2 kg/m3
5507.9 kPa	973.4 ± 1.2 kg/m3
5537.9 kPa	973.4 ± 1.2 kg/m3
5567.3 kPa	973.5 ± 1.2 kg/m3
5603.1 kPa	973.6 ± 1.2 kg/m3
5664.1 kPa	973.4 ± 1.2 kg/m3
5695.6 kPa	973.6 ± 1.2 kg/m3
5733.6 kPa	973.7 ± 1.2 kg/m3
5766.5 kPa	973.5 ± 1.2 kg/m3
5806.4 kPa	973.6 ± 1.2 kg/m3
5839.8 kPa	973.6 ± 1.2 kg/m3
5864 kPa	973.6 ± 1.2 kg/m3
5890.1 kPa	973.8 ± 1.2 kg/m3
5912.2 kPa	973.6 ± 1.2 kg/m3
5934.9 kPa	973.7 ± 1.2 kg/m3
5958.4 kPa	973.7 ± 1.2 kg/m3
5985.4 kPa	973.8 ± 1.2 kg/m3
6009 kPa	973.7 ± 1.2 kg/m3
6033.2 kPa	973.8 ± 1.2 kg/m3
6058.3 kPa	973.9 ± 1.2 kg/m3
6083.5 kPa	973.7 ± 1.2 kg/m3
6114.7 kPa	973.7 ± 1.2 kg/m3
6133.8 kPa	973.8 ± 1.2 kg/m3
6146.1 kPa	973.7 ± 1.2 kg/m3
6160.5 kPa	973.8 ± 1.2 kg/m3
6172.9 kPa	973.9 ± 1.2 kg/m3
6185.2 kPa	973.8 ± 1.2 kg/m3
6197.6 kPa	973.8 ± 1.2 kg/m3
6211.8 kPa	973.8 ± 1.2 kg/m3
6223.9 kPa	973.8 ± 1.2 kg/m3
6236.2 kPa	973.9 ± 1.2 kg/m3
6249.3 kPa	973.9 ± 1.2 kg/m3
6264.2 kPa	973.9 ± 1.2 kg/m3
6277.1 kPa	974.1 ± 1.2 kg/m3
6289.8 kPa	973.9 ± 1.2 kg/m3
6302.4 kPa	973.9 ± 1.2 kg/m3
6317.2 kPa	973.8 ± 1.2 kg/m3
6330 kPa	973.9 ± 1.2 kg/m3
6342.8 kPa	974 ± 1.2 kg/m3
6358 kPa	974 ± 1.2 kg/m3
6370.8 kPa	973.9 ± 1.2 kg/m3
6383.6 kPa	973.9 ± 1.2 kg/m3
6399 kPa	973.9 ± 1.2 kg/m3
6412.5 kPa	974 ± 1.2 kg/m3
6425.5 kPa	973.9 ± 1.2 kg/m3
6438.7 kPa	974 ± 1.2 kg/m3
6452 kPa	974 ± 1.2 kg/m3
6467.9 kPa	974 ± 1.2 kg/m3
6481 kPa	974 ± 1.2 kg/m3
6494.5 kPa	974.2 ± 1.2 kg/m3
6510.4 kPa	974 ± 1.2 kg/m3
6523.9 kPa	974 ± 1.2 kg/m3
6537.9 kPa	974.1 ± 1.2 kg/m3
6551.3 kPa	973.9 ± 1.2 kg/m3
6567.7 kPa	974.1 ± 1.2 kg/m3
6581.8 kPa	974 ± 1.2 kg/m3
6596.4 kPa	974.1 ± 1.2 kg/m3
6610.8 kPa	974.1 ± 1.2 kg/m3
6627.5 kPa	974.1 ± 1.2 kg/m3
6641.5 kPa	974.1 ± 1.2 kg/m3
6655.5 kPa	974 ± 1.2 kg/m3
6669.7 kPa	974.1 ± 1.2 kg/m3
6686.6 kPa	974.2 ± 1.2 kg/m3
6700.8 kPa	974.1 ± 1.2 kg/m3
6715.1 kPa	974.1 ± 1.2 kg/m3
6732.2 kPa	974.1 ± 1.2 kg/m3
6746.8 kPa	974.1 ± 1.2 kg/m3
6761.4 kPa	974.2 ± 1.2 kg/m3
6776.5 kPa	974.1 ± 1.2 kg/m3
6793.7 kPa	974.1 ± 1.2 kg/m3
6808.6 kPa	974.2 ± 1.2 kg/m3
6823.5 kPa	974.2 ± 1.2 kg/m3
6838.3 kPa	974 ± 1.2 kg/m3
6856.4 kPa	974.1 ± 1.2 kg/m3
6871.7 kPa	974.2 ± 1.2 kg/m3
6886.9 kPa	974.2 ± 1.2 kg/m3
6902.1 kPa	974.3 ± 1.2 kg/m3
6920.2 kPa	974.3 ± 1.2 kg/m3
6935.4 kPa	974.3 ± 1.2 kg/m3
6950.9 kPa	974.3 ± 1.2 kg/m3
6969.4 kPa	974.3 ± 1.2 kg/m3
6985 kPa	974.3 ± 1.2 kg/m3
7001 kPa	974.3 ± 1.2 kg/m3
7016.8 kPa	974.3 ± 1.2 kg/m3
7035.6 kPa	974.3 ± 1.2 kg/m3
7051.3 kPa	974.3 ± 1.2 kg/m3
7067 kPa	974.3 ± 1.2 kg/m3
7083.6 kPa	974.3 ± 1.2 kg/m3
7102.8 kPa	974.3 ± 1.2 kg/m3
7119 kPa	974.3 ± 1.6 kg/m3
7135.2 kPa	974.4 ± 1.2 kg/m3
7154.7 kPa	974.4 ± 1.2 kg/m3
7171.1 kPa	974.3 ± 1.2 kg/m3
7187.5 kPa	974.3 ± 1.2 kg/m3
7204.5 kPa	974.4 ± 1.2 kg/m3
7221.2 kPa	974.5 ± 1.2 kg/m3
7241.1 kPa	974.5 ± 1.2 kg/m3
7257.8 kPa	974.4 ± 1.2 kg/m3
7274.9 kPa	974.6 ± 1.2 kg/m3
7295 kPa	974.5 ± 1.2 kg/m3
7311.7 kPa	974.4 ± 1.2 kg/m3
7329.3 kPa	974.4 ± 1.2 kg/m3
7346.6 kPa	974.5 ± 1.2 kg/m3
7367.1 kPa	974.6 ± 1.2 kg/m3
7384.6 kPa	974.5 ± 1.2 kg/m3
7402.3 kPa	974.6 ± 1.2 kg/m3
7423.4 kPa	974.5 ± 1.2 kg/m3
